# Test results taken from patent US20140322315A1, “CYSTEAMINE AND/OR CYSTAMINE FOR TREATING ISCHEMIC INJURY” (The Regents of the University of California, priority 2011, published 2014).
# What was measured:
# adiponectin multimers = target: T1, adiponectin multimers (Homo sapiens, UniProt Q15848); assay: Pretreatment serum of subjects with NAFLD incubated 1 hour with cysteamine, adiponectin multimers; format: biochemical
# T1 construct: from tissue; host or cells: human serum (pretreatment NAFLD subjects; adults without NAFLD)
# T1 sequence (Q15848 19-244): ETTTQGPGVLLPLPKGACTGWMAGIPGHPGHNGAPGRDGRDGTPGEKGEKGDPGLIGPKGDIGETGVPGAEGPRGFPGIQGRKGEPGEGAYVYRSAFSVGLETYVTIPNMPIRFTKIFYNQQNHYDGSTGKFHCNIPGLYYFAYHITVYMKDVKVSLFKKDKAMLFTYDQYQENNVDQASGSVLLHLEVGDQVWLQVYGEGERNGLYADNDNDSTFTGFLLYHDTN
# Experimental: (§1) Total and multimeric adiponectin levels were measured in serum taken from: (1) subject with NAFLD collected at 0 and 24 wks of cysteamine therapy and again 16 wks after stopping therapy (i.e., 40 weeks); (2) pretreated 0-week subjects with NAFLD and adults without NAFLD at room temperature and at 37° C. and also after incubation with cysteamine 90 μM for 1 hour at 37° C.; and (3) pretreated 0-week subjects with NAFLD before and after incubation with cysteamine at varying concentrations (15, 30, 45, 60, 90, 120 μM) for 1 hour at 37° C. to establish dose-response profile.
# (§2) Sodium dodecyl sulfate polyacrylamide gel electrophoresis (SDS-PAGE) was performed according to standard Laemmli's method. Sample buffer for non-reducing, non-heat denaturing conditions contained 3% SDS; 50 mmol/1 Tris-HCL, pH 6.8 and 20% glycerol. Proteins were separated using 3-8% Tris-Acetate Gels (Invitrogen, Carlsbad Calif.) with Tris-Acetate running buffer per manufacturer instructions. For immunoblotting, proteins were transferred to nitrocellulose membranes. Membranes were washed with Tween (Tris-buffered Saline, 0.1% […]) and incubated with monoclonal antibody (1:500 BD Transduction Laboratories, San Diego, Calif.). After washing with Tris-buffered saline with 0.1% Tween (4×5 min) membranes were incubated with L-COR secondary antibodies (LI-COR Biotechnology, Lincoln Nebr.) at 1:20,000. Adiponectin multimers were detected and quantified using the LICOR imager and software analysis program. Relative distribution of adiponectin multimers was determined by dividing band density by total density (cellular adiponectin) or by total adiponectin as determined by ELISA (Millipore, Billerica, Mass.). The percentage of adionectin multimer was then multiplied by the total adiponectin level to calculate absolute oligomer value.
# adiponectin [1] = assay: Serum total and multimeric adiponectin in subjects with NAFLD treated 24 weeks with EC-cysteamine; format: in vivo, human
# Excerpt: Eleven children ≧10 years, with biopsy-proven NAFLD and an alanine aminotransferase (ALT) level ≧60 IU/L, were enrolled. They were either newly diagnosed or had not received specific therapy for NAFLD such as vitamin E or insulin-sensitizing drugs for at least 3 months before entering the study. All had undertaken standard of care lifestyle changes involving diet and exercise for more than 3 months. The study's primary outcome measure was normalization (≦40 IU/L) or 50% reduction in baseline serum ALT at 24 weeks of EC-cysteamine therapy; these subjects were deemed responders.
# Subjects were treated for 24 wks and remained monitored for 24 weeks following its discontinuation. The mean EC-cysteamine dose ingested was 654 mg twice daily or 15.2 mg/kg/day (median dose 900 mg) for 24 wks.
# During the pilot study blood was collected at pre-defined intervals. Serum was stored at −80° C. until time of assay. Adequate serum volumes were available in 10 of the 11 subjects with NAFLD and only up to 16 weeks post-treatment.
# as §1, §2
# adiponectin [2] = assay: Adiponectin secretion by adipose tissue explants / isolated fat cells cultured with cysteamine; format: cell-based; settings: 90 μM cysteamine, 45 min; p=0.002
# Experimental: Fat biopsy adipose tissue (AT) samples were collagenase digested×1 hr at 37° C. in a rotating waterbath. Digested AT was then filtered through 425 μm nylon mesh to separate fat cells. Isolated fat cells (FC) were twice washed in physiologic salts buffer (Phillips 2008), filtered and twice washed again. FC were spun at 50×g to concentrate. 1 ml FC were resuspended in 9 ml of defined culture media (Phillips 2008) and FC were allowed to recover×10 hrs overnight at 37° C.
# Adipocytes were isolated and allowed to recover×overnight then cultured with or without 90 μM cysteamine and media collected at the following time points (45, 90, 180, 24 hr). Western Blot analysis of 20 μl of media was performed with non-reducing 5× Loading buffer. […] The blot was washed and incubated with a secondary antibody (Goat anti-mouse IR 800) and densitometry measured on a LICOR densitometer. […]
# To determine the time course of cysteamine effects on adiponectin, media was changed and FC were resuspended in 9 ml of defined media ±90 μM cysteamine. FC content and secretion of adiponectin into the media was assessed in duplicate culture at 0, 45, 90, 180 minutes and 24 hr. […] Signal detection and quantitative analysis was completed using the LiCOR Odyssey Machine (LiCOR, Lincoln, Nebr.). Multimeric content of cellular adiponectin was determined by dividing the AU for the multimer by the total AU per sample. […]
# [3] = NAFLD serum (n=10), cysteamine 1 hour at 37° C. (45 μM in FIG. 13), P<0.0001
compound,measurement,setting,value
"NCCS [cysteamine, Cysteamine]",HMW adiponectin level change,"adiponectin multimers; NAFLD pretreatment serum, cysteamine 1 hour at 37° C.",unchanged
same,LMW adiponectin mean percent change vs pretreatment,adiponectin multimers; [3],increase
same,MMW adiponectin mean percent change vs pretreatment,adiponectin multimers; [3],significant reduction
same,mean percentage of total adiponectin comprised of HMW after incubation,"adiponectin multimers; NAFLD serum, cysteamine 1 hour at 37° C., before 8.2%",8.6%
same,mean percentage of total adiponectin comprised of LMW after incubation,"adiponectin multimers; NAFLD serum, cysteamine 1 hour at 37° C., before 28.5%",36.7%
same,mean percentage of total adiponectin comprised of MMW after incubation,"adiponectin multimers; NAFLD serum, cysteamine 1 hour at 37° C., before 63.3%",54.7%
same,"all sub-forms (multimer forms) of adiponectin, change from baseline",adiponectin [1]; 24 weeks of oral EC-cysteamine,increased
same,"total adiponectin, baseline vs 40 wks",adiponectin [1]; 40 weeks (therapy stopped at 24 weeks),No significant difference
same,relative proportion of HMW in total adiponectin,"adiponectin [1]; after 24 weeks cysteamine therapy, baseline 12.2%, P=0.02",increased significantly
same,relative proportion of LMW in total adiponectin,"adiponectin [1]; after 24 weeks cysteamine therapy, baseline 14.1%",remained unchanged
same,relative proportion of MMW in total adiponectin,"adiponectin [1]; after 24 weeks cysteamine therapy, baseline 73.7%, P=0.03",decreased
same,total adiponectin change between 24-week and 40-week timepoints,"adiponectin [1]; after discontinuing therapy at 24 weeks, P=0.01",significant decrease
same,mean percent increase of total adiponectin from baseline,"adiponectin [1]; all subjects, 0-24 weeks oral EC-cysteamine, P=0.05",significantly increased
same,"total adiponectin, treated vs untreated",adiponectin [2],Significant difference
